Test results as given in patent US7179825B2, “Retinoic acid mimetic anilides” (Janssen Pharmaceutica N.V., priority 1997, dated 2007).

System: Ovariectomized rats
Assay: Vaginal keratinization test on ovariectomized rats (Example C.2)
Type: in vivo
Conditions: estradiol undecylate induced keratinization, per os once daily on days 1-3, active dose = 50% of rats show complete suppression
Text: The property to delay the metabolism of retinoic acid can be evidenced in various in vitro and in vivo experiments. A particular in vitro procedure is described in example C.1 and tests the inhibitory activity of the compounds of formula (I) on the metabolism of retinoic acid in human breast cancer cells. The compounds of the present invention were also effective in suppressing induced vaginal keratinization effects in ovariectomized rats as is described in example C.2.
“Vaginal Keratinization Test on Ovariectomized Rats”
Ovariectomized rats were injected subcutaneously with a sesame oil solution containing 100 μg of estradiol undecylate in a volume of 0.1 ml per 100 g body weight and control animals were injected with sesame oil. On day one, two and three, test animals were treated once daily with a per os dose of the test compound and control animals with the drug vehicle (PEG 200). One day after the last treatment, the animals were sacrificed and their vaginas were processed for histological evaluation according to the method described in J. Pharmacol. Exp. Ther. 261(2), 773–779 (1992). A dose at which 50% of the tested rats show complete suppression of the estradiol undecylate induced keratinization effects is defined as an active dose. Table 23 lists the lowest active dose (LAD in mg/kg) of the compounds of formula (I) which were tested.

Row | Structure (SMILES) | LAD (lowest active dose)
1 | CC(C(c1ccc(NC(=O)N2CCN(C)CC2)cc1)n1ccnc1)N(C)C (single isomer, unassigned) [Compound 347] | >5.00 mg/kg
2 | CC(C(c1ccc(NC(=O)N2CCN(C)CC2)cc1)n1ccnc1)N(C)C (single isomer, unassigned) [Compound 349] | >2.50 mg/kg
3 | COc1ccccc1OCC(=O)Nc1ccc(C(C(C)N(C)C)n2ccnc2)cc1 (single isomer, unassigned) [Compound 350] | >2.50 mg/kg
4 | CCCC(C)C(c1ccc(NC(=O)Cc2ccc(Cl)cc2)cc1)n1ccnc1 (single isomer, unassigned) [Compound 374] | 2.50 mg/kg
5 | COc1ccc(CC(=O)Nc2ccc(C(C(C)N(C)C)n3ccnc3)cc2)cc1OC (single isomer, unassigned) [Compound 379] | >2.50 mg/kg
6 | CCOC(=O)C(C)C(c1ccc(NC(=O)Cc2ccc(OC)c(OC)c2)cc1)n1ccnc1 (single isomer, unassigned) [Compound 381] | >2.50 mg/kg
7 | CCCCCC(C)C(c1ccc(NC(=O)Cc2ccc(OC)c(OC)c2)cc1)n1ccnc1 (single isomer, unassigned) [Compound 384] | >2.50 mg/kg
8 | CCN(CC)C(C)C(c1ccc(NC(=O)Cc2ccc(OC)c(OC)c2)cc1)n1ccnc1 (single isomer, unassigned) [Compound 387] | >2.50 mg/kg
9 | COc1ccc(CC(=O)Nc2ccc(C(C(C)CN3CCCCC3)n3ccnc3)cc2)cc1OC (single isomer, unassigned) [Compound 390] | >2.50 mg/kg
10 | COc1ccc(CC(=O)Nc2ccc(C(C(C)CN(C)C)n3ccnc3)cc2)cc1OC (single isomer, unassigned) [Compound 391] | >5.00 mg/kg
11 | COc1ccc(CC(=O)Nc2ccc(C(C(C)CN(C)C)n3ccnc3)cc2)cc1OC (single isomer, unassigned) [Compound 392] | >5.00 mg/kg
12 | COc1ccc(CC(=O)Nc2ccc(C(C(C)N(C)Cc3ccccc3)n3ccnc3)cc2)cc1OC (single isomer, unassigned) [Compound 396] | >2.50 mg/kg
13 | COc1ccc(CC(=O)Nc2ccc(C(C(C)N(C)Cc3ccccc3)n3ccnc3)cc2)cc1OC (single isomer, unassigned) [Compound 398] | >5.00 mg/kg
14 | CNC(C)C(c1ccc(NC(=O)Cc2ccc(OC)c(OC)c2)cc1)n1ccnc1.O (single isomer, unassigned) [Compound 401] | >2.50 mg/kg
15 | CCCCN(C)C(C)C(c1ccc(NC(=O)Cc2ccc(OC)c(OC)c2)cc1)n1ccnc1 (single isomer, unassigned) [Compound 406] | >5.00 mg/kg
16 | COc1ccc(CC(=O)Nc2ccc(C(C(C)N(C)CCN(C)C)n3ccnc3)cc2)cc1OC (single isomer, unassigned) [Compound 407] | >5.00 mg/kg
17 | COc1ccc(CC(=O)Nc2ccc(C(C(C)N3CCOCC3)n3ccnc3)cc2)cc1OC (single isomer, unassigned) [Compound 408] | >5.00 mg/kg
18 | COc1ccc(CC(=O)Nc2ccc(C(C(C)N3CCOCC3)n3ccnc3)cc2)cc1OC (single isomer, unassigned) [Compound 409] | 5.00 mg/kg
19 | COc1ccc(CC(=O)Nc2ccc(C(C3CCCN(C)C3)n3ccnc3)cc2)cc1OC (single isomer, unassigned) [Compound 410] | >5.00 mg/kg
20 | COc1ccc(CC(=O)Nc2ccc(C(C3CCCCN3C)n3ccnc3)cc2)cc1OC (single isomer, unassigned) [Compound 411] | 2.50 mg/kg
21 | CCCN(C)C(C)C(c1ccc(NC(=O)Cc2ccc(OC)c(OC)c2)cc1)n1ccnc1 (single isomer, unassigned) [Compound 414] | 5.00 mg/kg
22 | COc1ccc(CC(=O)Nc2ccc(C(C(C)OC(=O)N(Cc3ccccc3)Cc3ccccc3)n3ccnc3)cc2)cc1OC (single isomer, unassigned) [Compound 417] | >5.00 mg/kg
